In publication PMC11532403 (Signal Transduction and Targeted Therapy, 2024):
Like-named read-outs stand apart in the source and are kept apart here.

Legend:
[1] = Plasma protein binding, rapid equilibrium dialysis; format: in vitro ADME; conditions: human, read-out: Plasma protein binding rate (converted)
[2] = Plasma protein binding, rapid equilibrium dialysis; format: in vitro ADME; conditions: dog, read-out: Plasma protein binding rate (converted)
[3] = test system: RET phosphorylation in BaF3-CCDC6-RET^WT cells; experiment: RET signaling pathway phosphorylation in cells; format: cell-based
[4] = Plasma protein binding, rapid equilibrium dialysis; format: in vitro ADME; conditions: rat, read-out: Plasma protein binding rate (converted)
[5] = Liver microsome metabolic stability; format: in vitro ADME; conditions: 1 μM
Text: The production of major metabolites in human liver microsomes is closer to that in rats or dogs than in mice or monkeys. The amounts of major metabolites produced in human liver microsomes was closer to the amount produced in […]. […] In addition to the same eight monophasic metabolites as in the in vitro study, five di-phasic metabolites, M6, M7, M8, M9 and M10, were detected in rat bile, but the peak areas of the di-phasic metabolites were much smaller than those of the monophasic metabolites.

cardiovascular system = experiment: Cardiovascular safety pharmacology; format: in vivo; conditions: males 2, 4, 6 mg/kg; females 4, 8, 12 mg/kg oral
Protocol: In the safety pharmacological study of cardiovascular effects, four male and four female beagles with buried implants were selected. […] The animals were evaluated by cage-side and detailed clinical observations, electrocardiogram, heart rate, body temperature and blood pressure.

RET^WT = biological target: T1, RET^WT (Homo sapiens, UniProt P07949); experiment: HTRF kinEASE-TK kinase assay; conditions: ATP at Km; read-out: Biochemical IC50 RET^WT
T1 construct: RET (residues 658-1114) was cloned into pFastBac vector containing an N-terminal Glutathione S-transferase (GST) tag; made in house; host or cells: Sf9 insect cells (baculovirus)
Protocol: (§1) RET (residues 658-1114) was cloned into pFastBac vector containing an N-terminal Glutathione S-transferase (GST) tag. Mutagenesis was performed on this vector to generate the RET^V804M single mutant: RETV804MmutF: […]a[…] and RETV804MmutR: […]t[…]; the RET^M918T single mutant: RETM918TmutF: […]c[…] and RETM918TmutR: […]g[…]; the RET^G810S single mutant: RETG810SmutF: […]tc[…] and RETG810SmutR: […]ga[…]. Recombinant baculovirus for expression of GST-RET was generated by co-transfection of Sf9 cells. Plaque-purified viruses were amplified, titrated and used to infect Sf9 cells incubated at 27 °C and 80 rpm. Cells were harvested 72 h post infection for protein purification.
(§2) Frozen cell pellets (1 liter culture/each) were thawed and resuspended in 20 ml of buffer A (50mM Tris-HCl, pH 7.5, 150mM NaCl, 0.1mM EDTA, 0.5% Triton X-100, 20% glycerol and 1* protease inhibitor [#539134-1SETCN, Merck]) and sonicated. The cell lysates were centrifuged at 20000 rpm for 40 min at 4 °C, then applied to GSH-Sepharose 4 Fast Flow (GE Healthcare) at 4 °C. After washing twice with 10 mL of buffer B (50mM Tris-HCl, pH 7.5, 150mM NaCl, 0.1 mM EDTA, 20% glycerol), the protein was eluted with elution buffer (50mM Tris-HCl, pH 7.5, 150mM NaCl, 0.1mM EDTA, 20% glycerol, 20mM Glutathione, 1 mM DTT) and concentrated using Amicon Ultra-15. Purities of proteins were 90% as determined by SDS-PAGE and Coomassie Blue stain.
(§3) Kinase activity was detected using CisBio HTRF kinEASE-TK kit. The assay was performed in 384-well white plates (#3574, Corning) in a reaction volume of 10 μL containing a final concentration of 50 mM HEPES, pH 7.5, 0.1 mM Na3VO4,0.01% BSA, 0.001% Tween-20, 5 mM MgCl2, […], 1 mM DTT, 1 μM TK-Substrate-biotin. The reaction was initiated by the addition of ATP at Km and indicated recombinant RET proteins. […] After incubation at 23 °C for 1 hour, FRET signal was measured on an EnVision reader (PerkinElmer Inc.).

RET^G810S = biological target: T2, RET^G810S (Homo sapiens, UniProt P07949, G810S); experiment: HTRF kinEASE-TK kinase assay; conditions: ATP at Km; read-out: Biochemical IC50 RET^G810S
T2 construct: RET (residues 658-1114) was cloned into pFastBac vector containing an N-terminal Glutathione S-transferase (GST) tag; made in house; host or cells: Sf9 insect cells (baculovirus)
Protocol: as §1, §2, §3

RET^M918T = biological target: T3, RET^M918T (Homo sapiens, UniProt P07949, M918T); experiment: HTRF kinEASE-TK kinase assay; conditions: ATP at Km; read-out: Biochemical IC50 RET^M918T
T3 construct: RET (residues 658-1114) was cloned into pFastBac vector containing an N-terminal Glutathione S-transferase (GST) tag; made in house; host or cells: Sf9 insect cells (baculovirus)
Protocol: as §1, §2, §3

CYP1A2 = experiment: CYP induction in hepatocytes; format: in vitro ADME, human; conditions: 1, 5, 50 μM, three donors

T2 sequence (P07949 658-1114 G810S): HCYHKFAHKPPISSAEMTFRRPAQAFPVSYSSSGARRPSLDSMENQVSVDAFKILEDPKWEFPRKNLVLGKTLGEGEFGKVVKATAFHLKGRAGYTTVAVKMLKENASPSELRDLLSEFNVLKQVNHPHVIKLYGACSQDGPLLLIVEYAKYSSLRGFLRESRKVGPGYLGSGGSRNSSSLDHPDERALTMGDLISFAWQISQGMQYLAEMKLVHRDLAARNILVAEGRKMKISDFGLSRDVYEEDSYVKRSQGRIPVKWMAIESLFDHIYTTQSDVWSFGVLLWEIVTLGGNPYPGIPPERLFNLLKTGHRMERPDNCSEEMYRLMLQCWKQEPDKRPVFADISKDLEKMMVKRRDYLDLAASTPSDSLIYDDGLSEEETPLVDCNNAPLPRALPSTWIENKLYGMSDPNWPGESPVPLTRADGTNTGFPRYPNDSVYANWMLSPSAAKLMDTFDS
T3 sequence (P07949 658-1114 M918T): as the sequence (P07949 658-1114 G810S) above, with S153G, M261T counted along it
T1 sequence (P07949 658-1114): as the sequence (P07949 658-1114 G810S) above, with S153G counted along it

## COc1ccc(CN2C3CC2CN(c2ccc(-c4cc(N5CC(C)(O)C5)cn5ncc(C#N)c45)cn2)C3)cn1 [SY-5007, 6-(3-hydroxy-3-methylazetidin-1-yl)-4-(6-(6-((6-methoxypyridin-3-yl)methyl)-3,6-diazabicyclo[3.1.1]heptan-3-yl)pyridin-3-yl)pyrazolo[1,5-a]pyridine-3-carbonitrile]
[1]
  fraction unbound: 0.061
[2]
  fraction unbound: 0.042
[3]
  Concentration at which effect reaches saturation: 10 nM
  Concentration significantly inhibiting RET phosphorylation: 1 nM
[4]
  fraction unbound: 0.034
[5]; dog liver microsomes
  Metabolic half-time: 280 min
[5]; human liver microsomes
  Metabolic half-time: 166 min
[5]; monkey liver microsomes
  Metabolic half-time: 57.9 min
[5]; mouse liver microsomes
  Metabolic half-time: 109 min
[5]; rat liver microsomes
  Metabolic half-time: 384 min
Cardiovascular system
  Cardiovascular effects: None of the changes were found to be related to the study drug
RET^WT
  IC50: 0.339 nM
RET^G810S
  IC50: 2.07 nM
RET^M918T
  IC50: 0.84 nM
CYP1A2
  CYP1A2 induction: no induction
